Source: patent US12643913B2, “Mcl-1 inhibitor formulations” (AMGEN INC., priority 2020, dated 2026)
“Also recorded” adds a separate entry of the source.

How the values were obtained:
[1] = Pharmacokinetics after oral gavage to male beagle dogs with different pre-treatments (Amgen study 150528); format: in vivo; conditions: 3 mg/kg PO; for AUCt / Cl/F / Cmax / Tmax / T½: male beagle dogs
Experimental: The pharmacokinetics of AMG 397 were assessed following oral administration to male beagle dogs as either a suspension of the crystalline hydrate form of AMG 397 or an amorphous suspension in 2% HPMC, 0.01% Tween 80. The full protocol is described in Amgen study number 150528. The goal of this study was to determine if the amorphous material would lead to increases in bioavailability and if variability in dosing could be reduced. In addition, oncology patients could be receiving acid-reducing agents as co-medication, so it is important to determine if exposure is reduced with elevated stomach pH and if an amorphous formulation of AMG 397 could overcome the drug-drug interaction (DDI). For the studies below, Form 1 is the crystalline hydrate form of AMG 397 and amorphous is the amorphous form of AMG 397.
(§1) Briefly, during each phase five male beagle dogs were assigned to each group of the study. All animals were fasted for at least eight hours prior to dosing and through the first four hours of blood sample collection for each phase. Food was returned within 30 minutes following collection of the last blood sample at the four-hour collection interval. Each animal in Phase 1, received a single oral (PO) gavage dose of the appropriate test article formulation as outlined in the study design Table 6. Oral gavage dosing formulations were continuously stirred throughout dosing. The gavage tube was rinsed with approximately 10 mL of tap water following dosing (prior to removal of the gavage tube). Following each study phase a 7-day washout period was allowed prior to the dosing of the next phase. The same five dogs were assigned to either group 1 or group 2 formulations for the duration of the study.
(§2) Test Article Administration: A total of 10 male beagle dogs were initially assigned to study. All animals were fasted for at least eight hours prior to dosing and through the first four hours of blood sample collection for each phase, where applicable (food will be returned within 30 minutes following collection of the last blood sample at the four hour collection interval, where applicable). Total fasting time […] 24 hours.
Each animal in Phase 1, Groups 1 and 2 received a single oral (PO) gavage dose of the appropriate test article formulation as outlined in the following study design table. Oral gavage dosing formulations was continuously stirred throughout dosing. The gavage tube was rinsed with approximately 10 mL of tap water following dosing (prior to removal of the gavage tube). No pre-treatment will be required for Phase 1.
After a 7-day washout period, each animal in Phase 2, Groups land 2 received a single oral (PO) gavage dose of the appropriate test article formulation as outlined in the following study design table. Oral gavage dosing formulations were continuously stirred throughout dosing. The gavage tube were rinsed with approximately 10 mL of tap water following dosing (prior to removal of the gavage tube). Two hours prior to dosing, each animal received two 20 mg (40 mg total) oral tablets of famotidine followed by a 10 mL dose of deionized water.
After another 7-day washout period, each animal in Phase 3, Groups land 2 received a single oral (PO) gavage dose of the appropriate test article formulation as outlined in the following study design table. Oral gavage dosing formulations were continuously stirred throughout dosing. The gavage tube was rinsed with approximately 10 mL of tap water following dosing (prior to removal of the gavage tube). Thirty minutes prior to dosing, each animal received an intramuscular dose of pentagastrin in phosphate buffered saline at a dose level of 0.006 mg/kg and a dose volume of 0.05 mL/kg.
After a final 7-day washout period, each animal in Phase 4, Groups 1 and 2 received a single oral (PO) gavage dose of the appropriate test article formulation as outlined in the following study design table. Oral gavage dosing formulations were continuously stirred throughout dosing. […]

[2] = Clinical observations in the beagle dog PK study; format: in vivo, male beagle dogs; conditions: 3 mg/kg PO, individual dogs
Experimental: as §1, §2
Different pre-treatments were assigned for each phase of the study to mimic several scenarios: • 1. No pre-treatment was administered for Phase 1 as it served as a control. • 2. During Phase 2, at 1 hour 54 minutes to 1 hour 58 minutes prior to dose administration, all animals were pretreated with two 20 mg (40 mg total) oral tablets of famotidine followed by a 10 mL dose of deionized water. […] This was used to determine the role of stomach pH on exposure. • 3. During Phases 3 and 4, at 30 to 38 minutes prior to dose administration, all animals were pretreated with a single intramuscular dose of pentagastrin in phosphate buffered saline, pH 7.4, at a dose level of 0.006 mg/kg and a dose volume of 0.05 mL/kg. The pentagastrin dose was used to ensure that the dogs stomach pH was normalized to pH ˜2.0 as it is known that the dogs stomach pH is often higher than that of humans under resting conditions. • 4. In addition, […], at 1 hour 3 minutes to 1 hour 6 minutes prior to dose administration and 4 hours 10 minutes to 4 hours 11 minutes following dose by oral gavage at a dose level of 3 mg/kg and a dose volume of 4 mL/kg. This final phase was used to study if P-gp played a role in absorption.

[3] = 2-stage micro-dissolution (faSSGF then faSSIF), amorphous vs crystalline hydrate; format: physicochemical
Experimental: A 2-stage micro-dissolution experiment was performed to compare the dissolution of the amorphous AMG 397 drug substance to the crystalline hydrate form of AMG 397, as shown in FIG. 5. […] Upon dilution with fasted simulated intestinal fluid (faSSIF, pH 6.0 after dilution) the concentration of the amorphous material was seen to drop before increasing over the next 10 minutes and reaching a plateau. No precipitation of the amorphous material was observed, and it maintained at 5× higher concentration than the crystalline hydrate form of AMG 397 for the duration of the experiment. […] Unlike the amorphous material no further dissolution occurred once the media was switched to faSSIF.

[4] = Phase 2, famotidine pre-treatment (stomach pH ~6.5)
[5] = Phase 3, pentagastrin pre-treatment (stomach pH ~2.0)
[6] = Phase 4, pentagastrin pre-treatment + P-gp inhibitor GF120918

SMILES: CO[C@]1(CN2CCN3CCCC[C@@H]3C2)/C=C/C[C@H](C)[C@@H](C)S(=O)(=O)NC(=O)c2ccc3c(c2)N(C[C@@H]2CC[C@H]21)C[C@@]1(CCCc2cc(Cl)ccc21)CO3 [AMG 397 Amorphous]
- AUCt ([1]; Phase 1, no pre-treatment): 17.3 µM·h
- Cl/F ([1]; Phase 1, no pre-treatment): 6.7 mL/min/kg
- Cmax ([1]; Phase 1, no pre-treatment): 790 nM
- Tmax ([1]; Phase 1, no pre-treatment): 3.1 h
- T½ ([1]; Phase 1, no pre-treatment): 18.4 h
- AUCt [1, 4]: 21.1 µM·h
- Cl/F [1, 4]: 3.67 mL/min/kg
- Cmax [1, 4]: 900 nM
- Tmax [1, 4]: 8.1 h
- T½ [1, 4]: 19.7 h
- AUCt [1, 5]: 18 µM·h
- Cl/F [1, 5]: 4.33 mL/min/kg
- Cmax [1, 5]: 780 nM
- Tmax [1, 5]: 10.4 h
- T½ [1, 5]: 18.3 h
- AUCt [1, 6]: 26.0 µM·h
- Cl/F [1, 6]: 4.33 mL/min/kg
- Cmax [1, 6]: 950 nM
- Tmax [1, 6]: 12.4 h
- T½ [1, 6]: 16.5 h
- Effect of stomach pH on exposure ([1]; beagle dogs): not affected by stomach pH
- Bioavailability relative to the crystalline hydrate form ([1]; stomach pH elevated, beagle dogs): 3.4 fold
- Bioavailability relative to the crystalline hydrate form ([1]; stomach pH low, beagle dogs): 1.6 fold
- Positive clinical findings (observation) ([2]; Phase 1 (Days 1 to 7), no pre-treatment): Yellow, frothy vomitus
- Positive clinical findings (observation) ([2]; Phase 2 (Days 8 to 14), famotidine pre-treatment): White, frothy vomitus; also recorded: Soft feces; also recorded: Yellow, frothy vomitus
- Positive clinical findings (observation) ([2]; Phase 3 (Days 15 to 21), pentagastrin pre-treatment): Salivation; also recorded: White, frothy vomitus; also recorded: Yellow, frothy vomitus
- Positive clinical findings (observation) ([2]; Phase 4 (Days 22 to 24), pentagastrin pre-treatment and inhibitor GF120918 pre- and post-treatment): Small amount of white,
- Positive clinical findings (observation) ([2]; Phase 5 (Days 71 to 73), inhibitor GF120918 pre- and post-treatment, 3 mg/kg): Salivation; also recorded: Watery feces; also recorded: Yellow, frothy vomitus; also recorded: Yellow, discolored feces; also recorded: Mucoid feces; also recorded: Tan, frothy vomitus
- Concentration relative to the crystalline hydrate form ([3]; after dilution with faSSIF (pH 6.0), maintained for the duration of the experiment): 5 ×
- Concentration relative to the crystalline hydrate form ([3]; simulated gastric fluid (faSSGF), after 20 minutes): ~8 ×
